Source: PubChem BioAssay AID2060882 (Molecular Pharmacology Branch, DTP, NCI, 2025)
pIC50: −log10 of the molar value. Where “and” joins values, the source holds several entries; their conditions need not be identical. Identical values can stand only once. Blank lines part the entries; values can stand above or below the compound they belong to.

Test system: 898857-211-R-J1-PDC complex spheroids, growth % test/control
Assay: Anticancer human tumor 898857-211-R-J1-PDC patient-derived melanoma cell line growth inhibition [RAS]
Settings: for viability, T/C: stronger effect = lower value
Text: RAS pathway inhibitors in Combinations in Complex Spheroids
A high-throughput screen of multi-cell type tumor spheroids was designed to identify active combinations of RAS pathway inhibitors and targeted small molecules. Complex spheroids include a stromal component modeled by human endothelial cells (HUVEC) and fibroblasts modeled by human mesenchymal stem cells (MSCs). The concentration ranges selected for each drug and investigational agent were based upon clinically achievable concentrations if the clinical Cmax of the agent was known.
Compounds. The drugs and investigational agents: abemaciclib (NSC768073), cobimetinib (NSC768068), divarasib (GDC6063, NSC841802), docetaxel (NSC628503), GDC-1971 (RLY-1971, NSC841576), gemcitabine (NSC613327), inavolisib (NSC800729), ipatasertib (NSC767898), KB-0742 (NSC834161), MRTX-1133 (NSC836407), osimertinib (NSC779217), RMC-4630 (NSC839698), RMC-6236 (NSC851965), RMC-6291 (NSC852671), Ro-3306 (NSC812927), sapanisertib (NSC764658), SN-38 (NSC673596), staurosporine (NSC755774), SY5609 (NSC837396), and tovorafenib (DAY101, NSC766906), were obtained from the National Cancer Institute (NCI) Developmental Therapeutics Program Chemical Repository. The FDA-approved anticancer drug set is available from the NCI Developmental Therapeutics Program. […] The stock solutions were prepared in dimethyl sulfoxide (DMSO, Sigma-Aldrich, St. Louis, MO, cat. D2650) at 800-fold the tested concentration and stored at -70 degrees C prior to their use. All drugs and investigational agents were tested over a range starting from a high concentration at or near the clinical Cmax and decreasing in half-log increments. If the clinical Cmax for an agent had not been determined, the highest concentration tested was 10 microM.
Cell Culture. All cells were maintained in an incubator at 37 degrees C and 5% CO2 with 95% humidity. The PDC lines were cultured according to standard operating procedures established by the NCI PDMR. All PDCs were thawed and cultured in Matrigel-coated flasks prepared with a working solution of 1X Ham's F-12 nutrient mix, without supplementation (Invitrogen, Waltham, MA, cat. 11765054), 100 U/mL penicillin-streptomycin (Invitrogen, cat. 15140122), and 2.5% Matrigel (Corning Inc., Corning, NY, cat. 354248) for the first three passages. The 362531-283-R-J2-PDC and 782815-120-R-J1-PDC lines were cultured in 6C/Colon 1B media, which includes advanced DMEM/F-12 (Thermo Fisher Scientific, cat. 12634028), 10 mM HEPES (Thermo Fisher Scientific, cat. 15630080), 1X GlutaMAX supplement (Thermo Fisher Scientific, cat. 35050061), 0.1 mg/mL primocin (InvivoGen, San Diego, CA, cat. ant-pm-2), 10% defined fetal bovine serum, heat inactivated (HyClone Laboratories Inc., Logan, UT, cat. SH30070.03HI), 50% L-WRN conditioned media (ATCC, cat. CRL-3276), 1.25 mM N-Acetyl-L-cysteine (Sigma-Aldrich, cat. A9165), 10 mM nicotinamide (Sigma-Aldrich, cat. N0636), 1X B-27 supplement (Thermo Fisher Scientific, cat. 17504044), 1X N-2 supplement (Thermo Fisher Scientific, cat. 17502048), 50 ng/mL human EGF (Thermo Fisher Scientific, cat. PHG0311), and 10 microM Y-27632 dihydrochloride (Tocris Bioscience, cat. 1254). The K12877-001-R-J1-PDC line was cultured in 6I media, which includes all 6C/Colon 1B media plus 10 ng/mL human FGF-10 (PeproTech, cat. 100-26), 1 ng/mL human FGF-2 (PeproTech, cat. 100-18B), 1 µM prostaglandin E2 (Tocris Bioscience, cat. 2296), […] hydrocortisone (Sigma-Aldrich, cat. H4001), and […] bovine insulin (Sigma-Aldrich, cat. I6634). The K86415-001-R-J1-PDC line was cultured in 6D media, which includes all 6C/Colon 1B media components minus the L-WRN conditioned media. The 485176-168-R4-J1-PDC was cultured in PANC media, which includes all 6C/Colon 1B media plus 100 ng/mL human FGF-10 (PeproTech, cat. 100-26), 500 nM SB-431542 (Selleckchem, cat. S1067), and 10 nM gastrin (Tocris Bioscience, cat. 3006). […]
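Also: spheroids exposed to compound for seven days before readout.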
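For viability, T/C in this document: 100% = DMSO vehicle control wells.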

SMILES: C#Cc1c(F)ccc2cc(O)cc(-c3ncc4c(N5CC6CCC(C5)N6)nc(OCC56CCCN5CC(F)C6)nc4c3F)c12 (centres undefined)
viability, T/C (compound 0.0316 µM): 105% [middle of 8 runs]
viability, T/C (compound 0.1 µM): 111% [middle of 8 runs]
viability, T/C (compound 0.316 µM): 108% [middle of 8 runs]
viability, T/C (compound 1 µM): 109% [middle of 8 runs]
viability, T/C (compound 3.16 µM): 103% [middle of 8 runs]
viability, T/C (compound 10 µM): 50.8% [middle of 8 runs]

pIC50 (compound alone, run of 09/09/2024): < 6.00
pIC50 (curve of compound): < 6.00
SMILES: C=CC(=O)N1CCN(c2nc(OCC3CCCN3C)nc3c(F)c(-c4nc(N)cc(C)c4C(F)(F)F)c(Cl)cc23)C(C)C1 (centres undefined)
viability, T/C (compound 0.00316 µM, compound 0.0316 µM): 121%
viability, T/C (compound 0.00316 µM, compound 0.1 µM): 105%
viability, T/C (compound 0.00316 µM, compound 0.316 µM): 117%
viability, T/C (compound 0.00316 µM, compound 1 µM): 124%
viability, T/C (compound 0.00316 µM): 110% [middle of 11 runs]
viability, T/C (compound 0.01 µM, compound 0.00316 µM): 98.1%
viability, T/C (compound 0.01 µM, compound 0.0316 µM): 108%
viability, T/C (compound 0.01 µM, compound 0.1 µM): 112%
viability, T/C (compound 0.01 µM, compound 0.316 µM): 116%
viability, T/C (compound 0.01 µM, compound 1 µM): 127%
viability, T/C (compound 0.01 µM): 108% [middle of 12 runs]
viability, T/C (compound 0.0316 µM, compound 0.00316 µM): 102%
viability, T/C (compound 0.0316 µM, compound 0.01 µM): 108%
viability, T/C (compound 0.0316 µM, compound 0.1 µM): 103%
viability, T/C (compound 0.0316 µM, compound 0.316 µM): 115%
viability, T/C (compound 0.0316 µM, compound 1 µM): 122%
viability, T/C (compound 0.0316 µM): 112% [middle of 12 runs]
viability, T/C (compound 0.1 µM, compound 0.00316 µM): 109%
viability, T/C (compound 0.1 µM, compound 0.01 µM): 103%
viability, T/C (compound 0.1 µM, compound 0.0316 µM): 122%
viability, T/C (compound 0.1 µM, compound 0.316 µM): 118%
viability, T/C (compound 0.1 µM, compound 1 µM): 127%
viability, T/C (compound 0.1 µM): 114% [middle of 12 runs]
viability, T/C (compound 0.316 µM, compound 0.00316 µM): 125%
viability, T/C (compound 0.316 µM, compound 0.01 µM): 121%
viability, T/C (compound 0.316 µM, compound 0.0316 µM): 119%
viability, T/C (compound 0.316 µM, compound 0.1 µM): 125%
viability, T/C (compound 0.316 µM, compound 1 µM): 127%
viability, T/C (compound 0.316 µM): 115% [middle of 12 runs]
viability, T/C (compound 1 µM, compound 0.00316 µM): 115%
viability, T/C (compound 1 µM, compound 0.01 µM): 126%
viability, T/C (compound 1 µM, compound 0.0316 µM): 123%
viability, T/C (compound 1 µM, compound 0.1 µM): 112%
viability, T/C (compound 1 µM, compound 0.316 µM): 119%
viability, T/C (compound 1 µM): 116% [middle of 12 runs]

pIC50 (curve of compound): 6.01 and < 6.00 and 6.10
SMILES: C=CC(=O)Nc1cc(Nc2nccc(-c3cn(C)c4ccccc34)n2)c(OC)cc1N(C)CCN(C)C
viability, T/C (compound 0.00316 µM): 113% and 103% (2×) and 128%
viability, T/C (compound 0.01 µM): 99.8% [middle of 4 runs]
viability, T/C (compound 0.0316 µM): 114% [middle of 4 runs]
viability, T/C (compound 0.1 µM): 102% [middle of 4 runs]
viability, T/C (compound 0.316 µM): 92.8% [middle of 4 runs]
viability, T/C (compound 1 µM): 54.5% [middle of 4 runs]

pIC50 (curve of compound): > 7.50
SMILES: CC(=O)OC12COC1CC(O)C1(C)C(=O)C(O)C3=C(C)C(OC(=O)C(O)C(NC(=O)OC(C)(C)C)c4ccccc4)CC(O)(C(OC(=O)c4ccccc4)C21)C3(C)C (centres undefined)
viability, T/C (compound 0.0316 µM): 13% [middle of 4 runs]
viability, T/C (compound 0.1 µM): 13% [middle of 4 runs]
viability, T/C (compound 0.316 µM): 13.3% [middle of 4 runs]
viability, T/C (compound 1 µM): 15.8% [middle of 4 runs]
viability, T/C (compound 3.16 µM): 17.8% [middle of 4 runs]
viability, T/C (compound 10 µM): 20.8% [middle of 4 runs]

pIC50 (curve of compound): < 5.00
SMILES: CC(Nc1ccc2c(c1)OCCn1cc(N3C(=O)OCC3C(F)F)nc1-2)C(N)=O (centres undefined)
viability, T/C (compound 0.0316 µM): 101% [middle of 4 runs]
viability, T/C (compound 0.1 µM): 90.6% [middle of 4 runs]
viability, T/C (compound 0.316 µM): 102% [middle of 4 runs]
viability, T/C (compound 1 µM): 91.9% [middle of 4 runs]
viability, T/C (compound 3.16 µM): 95.3% [middle of 4 runs]
viability, T/C (compound 10 µM): 70.9% [middle of 4 runs]

pIC50 (curve of compound): 6.63 and 6.77 and 6.83
SMILES: CC1(O)CCCC1n1c(=O)c(C(F)F)cc2cnc(NC3CCN(S(C)(=O)=O)CC3)nc21 (centres undefined)
viability, T/C (compound 0.0316 µM): 93.3% and 97.5% and 83.3%
viability, T/C (compound 0.1 µM): 58.4% and 53.8% and 49.8%
viability, T/C (compound 0.316 µM): 42.2% (2×) and 39.9%
viability, T/C (compound 1 µM): 45.2% and 35.5% and 38.7%
viability, T/C (compound 3.16 µM): 41% and 30.3% and 45.7%
viability, T/C (compound 10 µM): 21.5% and 15.1% and 17.7%

IC50 (curve of compound): 1.04 µM [middle of 4 runs]
SMILES: CCC(CC)c1cc(NC2CCC(N)C2)n2nccc2n1 (centres undefined)
viability, T/C (compound 0.0316 µM): 113% [middle of 4 runs]
viability, T/C (compound 0.1 µM): 99.5% [middle of 4 runs]
viability, T/C (compound 0.316 µM): 97.5% [middle of 4 runs]
viability, T/C (compound 3.16 µM): 1.39% [middle of 4 runs]
viability, T/C (compound 10 µM): 0.28% [middle of 4 runs]

pIC50 (curve of compound): 6.35 and 6.49 and 6.43
SMILES: CCN1CCN(Cc2ccc(Nc3ncc(F)c(-c4cc(F)c5nc(C)n(C(C)C)c5c4)n3)nc2)CC1
viability, T/C (compound 0.00316 µM): 112% and 130% and 92.5%
viability, T/C (compound 0.01 µM): 92% (2×) and 103%
viability, T/C (compound 0.0316 µM): 97.3% and 96% and 83%
viability, T/C (compound 0.1 µM): 73.1% and 62.7% and 65.1%
viability, T/C (compound 0.316 µM): 51.2% and 51.1% and 55.3%
viability, T/C (compound 1 µM): 44.4% and 36% and 33.4%

pIC50 (curve of compound): < 5.00
SMILES: Cc1nc(N2CCC3(CC2)COC(C)C3N)c(CO)nc1Sc1ccnc(N)c1Cl (centres undefined)
viability, T/C (compound 0.0316 µM): 100% [middle of 4 runs]
viability, T/C (compound 0.1 µM): 89.5% [middle of 4 runs]
viability, T/C (compound 0.316 µM): 101% [middle of 4 runs]
viability, T/C (compound 1 µM): 95.5% [middle of 4 runs]
viability, T/C (compound 3.16 µM): 99.2% [middle of 4 runs]
viability, T/C (compound 10 µM): 93.4% [middle of 4 runs]

pIC50 (curve of compound): < 5.00 and 5.03
SMILES: NC1c2ccccc2OC12CCN(c1cnc3c(N4CCCc5ncccc54)n[nH]c3n1)CC2 (centres undefined)
viability, T/C (compound 0.0316 µM): 98.9% [middle of 4 runs]
viability, T/C (compound 0.1 µM): 88.9% [middle of 4 runs]
viability, T/C (compound 0.316 µM): 97.4% [middle of 4 runs]
viability, T/C (compound 1 µM): 87% [middle of 4 runs]
viability, T/C (compound 3.16 µM): 94.4% [middle of 4 runs]

IC50 (curve of compound): 7.17 nM [middle of 4 runs]
SMILES: Nc1ccn(C2OC(CO)C(O)C2(F)F)c(=O)n1 (centres undefined)
viability, T/C (compound 0.01 µM): 30.2% [middle of 4 runs]
viability, T/C (compound 0.0316 µM): 6.09% [middle of 4 runs]
viability, T/C (compound 0.1 µM): 4.85% [middle of 4 runs]
viability, T/C (compound 0.316 µM): 4.59% [middle of 4 runs]
viability, T/C (compound 1 µM): 4.83% [middle of 4 runs]

SMILES: O=C(c1ccc(F)c(F)c1Nc1ccc(I)cc1F)N1CC(O)([C@@H]2CCCCN2)C1
viability, T/C (compound 0.00316 µM): 56.5% [middle of 4 runs]
viability, T/C (compound 0.01 µM): 40.4% (2×) and 26.7% and 33.1%
viability, T/C (compound 0.0316 µM): 28.9% [middle of 4 runs]
viability, T/C (compound 0.1 µM): 20.3% [middle of 4 runs]
viability, T/C (compound 0.316 µM): 18.5% [middle of 4 runs]
viability, T/C (compound 1 µM): 13.4% [middle of 4 runs]
